# From patent publication US11013817B2, “Nanoparticles for drug delivery to treat bone disease” (The Cleveland Clinic Foundation, priority 2016, dated 2021)
# What was measured:
# [1] = test system: DU145 cells; assay: Cytotoxicity of TXT and TXT-NPs in DU145 cells; format: cell-based; conditions: DU145, 5 day
# From the text: (§1) In order to confirm the efficacy of TXT NPs, we determined IC50 of the drug and drug encapsulated in NPs in PC-3 and DU145 cells.
# [2] = test system: PC-3 cells; assay: Cytotoxicity of TXT and TXT-NPs in PC-3 cells; format: cell-based; conditions: for IC50 / IC90: Homo sapiens
# From the text: as §1
# [3] = Solid state solubility of PTX and TXT in polymers (phase separation in cast films); format: physicochemical; design: key: +ve: Phase separation; −ve: No phase separation
# From the text: For this example, polymer and drug solutions in chloroform at different % of drug to polymer were casted into films on glass slides. Following solvent evaporation of chloroform in a chemical hood overnight, the casted films were observed under a light microscope. Phase separation was clearly evident from crystallization of the drug in the polymer film whereas the films were homogeneous when there was no phase separation.
smiles,measurement,setting,value
"CC(=O)O[C@@]12CO[C@@H]1C[C@H](O)[C@@]1(C)C(=O)[C@H](O)C3=C(C)[C@@H](OC(=O)[C@H](O)[C@@H](NC(=O)OC(C)(C)C)c4ccccc4)C[C@@](O)([C@@H](OC(=O)c4ccccc4)[C@H]21)C3(C)C [Docetaxel, (2R,3S)-N-carboxy-3-phenylisoserine, N-tert-butyl ester, 13-ester with 5b-20-epoxy-12a,4,7b,10b,13a-hexahydroxytax-11-en-9-one 4-acetate 2-benzoate, trihydrate]",IC75,[1],1.9 ± 0.03 ng/mL
same,IC50,"[1]; Homo sapiens, DU-145, 120 h",1.5 ± 0.04 ng/mL
same,IC90,"[1]; Homo sapiens, DU-145, 120 h",2.4 ± 0.02 ng/mL
same,IC50,"[2]; PC-3, 72 h, PC3, 3 day",2.5 ± 0.05 ng/mL
same,IC90,"[2]; PC-3, 72 h, PC3, 3 day",6.31 ± 0.17 ng/mL
same,IC50,"[2]; PC-3, 120 h, PC3, 5 day",1.6 ± 0.01 ng/mL
same,IC90,"[2]; PC-3, 120 h, PC3, 5 day",5 ± 0.07 ng/mL
same,IC50,"[2]; PC-3, 168 h, PC3, 7 day",1.6 ± 0.01 ng/mL
same,IC90,"[2]; PC-3, 168 h, PC3, 7 day",4.2 ± 0.08 ng/mL
same,IC75,"[2]; PC3, 3 day",3.8 ± 0.03 ng/mL
same,IC75,"[2]; PC3, 5 day",2.5 ± 0.02 ng/mL
same,IC75,"[2]; PC3, 7 day",2.5 ± 0.01 ng/mL
same,Phase Separation,"[3]; drug 1% w/w, polymer inherent viscosity 0.16 dL/g, Lactide/Glycolide 50/50",−
same,Phase Separation,"[3]; drug 1% w/w, polymer inherent viscosity 0.18 dL/g, Lactide/Glycolide 75/25",+
same,Phase Separation,"[3]; drug 1% w/w, polymer inherent viscosity 0.26-0.54 dL/g, Lactide/Glycolide 50/50, Ester Terminated",+
same,Phase Separation,"[3]; drug 1% w/w, polymer inherent viscosity 0.39 dL/g, Lactide/Glycolide 50/50",−
same,Phase Separation,"[3]; drug 1% w/w, polymer inherent viscosity 0.55-0.75 dL/g, Lactide/Glycolide 50/50, Carbohydrate end Group",+
same,Phase Separation,"[3]; drug 1% w/w, polymer inherent viscosity 0.63 dL/g, Lactide/Glycolide 85/15",+
same,Phase Separation,"[3]; drug 1% w/w, polymer inherent viscosity 0.64 dL/g, Lactide/Glycolide 65/35",+
same,Phase Separation,"[3]; drug 1% w/w, polymer inherent viscosity 0.64 dL/g, Lactide/Glycolide 75/25",+
same,Phase Separation,"[3]; drug 1% w/w, polymer inherent viscosity 0.67 dL/g, Lactide/Glycolide 65/35",−
same,Phase Separation,"[3]; drug 1% w/w, polymer inherent viscosity 0.69 dL/g, Lactide/Glycolide 50/50 (first of two such lines, r12)",−
same,Phase Separation,"[3]; drug 1% w/w, polymer inherent viscosity 0.69 dL/g, Lactide/Glycolide 50/50 (second of two such lines, r13)",+
same,Phase Separation,"[3]; drug 1% w/w, polymer inherent viscosity 0.76-0.94 dL/g, Lactide/Glycolide 50/50",+
same,Phase Separation,"[3]; drug 1% w/w, polymer inherent viscosity 0.87 dL/g, Lactide/Glycolide 50/50",+
same,Phase Separation,"[3]; drug 1% w/w, polymer inherent viscosity 0.95-1.20 dL/g, Lactide/Glycolide 50/50",−
same,Phase Separation,"[3]; drug 1% w/w, polymer inherent viscosity 1.15 dL/g, Lactide/Glycolide 50/50",+
same,Phase Separation,"[3]; drug 1% w/w, polymer inherent viscosity 1.24 dL/g, Lactide/Glycolide 50/50",+
same,Phase Separation,"[3]; drug 5% w/w, polymer inherent viscosity 0.16 dL/g, Lactide/Glycolide 50/50",−
same,Phase Separation,"[3]; drug 5% w/w, polymer inherent viscosity 0.18 dL/g, Lactide/Glycolide 75/25",+
same,Phase Separation,"[3]; drug 5% w/w, polymer inherent viscosity 0.26-0.54 dL/g, Lactide/Glycolide 50/50, Ester Terminated",+
same,Phase Separation,"[3]; drug 5% w/w, polymer inherent viscosity 0.39 dL/g, Lactide/Glycolide 50/50",−
same,Phase Separation,"[3]; drug 5% w/w, polymer inherent viscosity 0.55-0.75 dL/g, Lactide/Glycolide 50/50, Carbohydrate end Group",+
same,Phase Separation,"[3]; drug 5% w/w, polymer inherent viscosity 0.63 dL/g, Lactide/Glycolide 85/15",+
same,Phase Separation,"[3]; drug 5% w/w, polymer inherent viscosity 0.64 dL/g, Lactide/Glycolide 65/35",+
same,Phase Separation,"[3]; drug 5% w/w, polymer inherent viscosity 0.64 dL/g, Lactide/Glycolide 75/25",+
same,Phase Separation,"[3]; drug 5% w/w, polymer inherent viscosity 0.67 dL/g, Lactide/Glycolide 65/35",+
same,Phase Separation,"[3]; drug 5% w/w, polymer inherent viscosity 0.69 dL/g, Lactide/Glycolide 50/50 (first of two such lines, r12)",−
same,Phase Separation,"[3]; drug 5% w/w, polymer inherent viscosity 0.69 dL/g, Lactide/Glycolide 50/50 (second of two such lines, r13)",+
same,Phase Separation,"[3]; drug 5% w/w, polymer inherent viscosity 0.76-0.94 dL/g, Lactide/Glycolide 50/50",+
same,Phase Separation,"[3]; drug 5% w/w, polymer inherent viscosity 0.87 dL/g, Lactide/Glycolide 50/50",+
same,Phase Separation,"[3]; drug 5% w/w, polymer inherent viscosity 0.95-1.20 dL/g, Lactide/Glycolide 50/50",−
same,Phase Separation,"[3]; drug 5% w/w, polymer inherent viscosity 1.15 dL/g, Lactide/Glycolide 50/50",+
same,Phase Separation,"[3]; drug 5% w/w, polymer inherent viscosity 1.24 dL/g, Lactide/Glycolide 50/50",+
same,Phase Separation,"[3]; drug 10% w/w, polymer inherent viscosity 0.16 dL/g, Lactide/Glycolide 50/50",−
same,Phase Separation,"[3]; drug 10% w/w, polymer inherent viscosity 0.18 dL/g, Lactide/Glycolide 75/25",+
same,Phase Separation,"[3]; drug 10% w/w, polymer inherent viscosity 0.26-0.54 dL/g, Lactide/Glycolide 50/50, Ester Terminated",+
same,Phase Separation,"[3]; drug 10% w/w, polymer inherent viscosity 0.39 dL/g, Lactide/Glycolide 50/50",−
same,Phase Separation,"[3]; drug 10% w/w, polymer inherent viscosity 0.55-0.75 dL/g, Lactide/Glycolide 50/50, Carbohydrate end Group",+
same,Phase Separation,"[3]; drug 10% w/w, polymer inherent viscosity 0.63 dL/g, Lactide/Glycolide 85/15",+
same,Phase Separation,"[3]; drug 10% w/w, polymer inherent viscosity 0.64 dL/g, Lactide/Glycolide 65/35",+
same,Phase Separation,"[3]; drug 10% w/w, polymer inherent viscosity 0.64 dL/g, Lactide/Glycolide 75/25",+
same,Phase Separation,"[3]; drug 10% w/w, polymer inherent viscosity 0.67 dL/g, Lactide/Glycolide 65/35",+
same,Phase Separation,"[3]; drug 10% w/w, polymer inherent viscosity 0.69 dL/g, Lactide/Glycolide 50/50 (first of two such lines, r12)",−
same,Phase Separation,"[3]; drug 10% w/w, polymer inherent viscosity 0.69 dL/g, Lactide/Glycolide 50/50 (second of two such lines, r13)",+
same,Phase Separation,"[3]; drug 10% w/w, polymer inherent viscosity 0.76-0.94 dL/g, Lactide/Glycolide 50/50",+
same,Phase Separation,"[3]; drug 10% w/w, polymer inherent viscosity 0.87 dL/g, Lactide/Glycolide 50/50",+
same,Phase Separation,"[3]; drug 10% w/w, polymer inherent viscosity 0.95-1.20 dL/g, Lactide/Glycolide 50/50",−
same,Phase Separation,"[3]; drug 10% w/w, polymer inherent viscosity 1.15 dL/g, Lactide/Glycolide 50/50",+
same,Phase Separation,"[3]; drug 10% w/w, polymer inherent viscosity 1.24 dL/g, Lactide/Glycolide 50/50",+
same,Phase Separation,"[3]; drug 15% w/w, polymer inherent viscosity 0.16 dL/g, Lactide/Glycolide 50/50",−
same,Phase Separation,"[3]; drug 15% w/w, polymer inherent viscosity 0.18 dL/g, Lactide/Glycolide 75/25",+
same,Phase Separation,"[3]; drug 15% w/w, polymer inherent viscosity 0.26-0.54 dL/g, Lactide/Glycolide 50/50, Ester Terminated",+
same,Phase Separation,"[3]; drug 15% w/w, polymer inherent viscosity 0.39 dL/g, Lactide/Glycolide 50/50",−
same,Phase Separation,"[3]; drug 15% w/w, polymer inherent viscosity 0.55-0.75 dL/g, Lactide/Glycolide 50/50, Carbohydrate end Group",+
same,Phase Separation,"[3]; drug 15% w/w, polymer inherent viscosity 0.63 dL/g, Lactide/Glycolide 85/15",+
same,Phase Separation,"[3]; drug 15% w/w, polymer inherent viscosity 0.64 dL/g, Lactide/Glycolide 65/35",+
same,Phase Separation,"[3]; drug 15% w/w, polymer inherent viscosity 0.64 dL/g, Lactide/Glycolide 75/25",+
same,Phase Separation,"[3]; drug 15% w/w, polymer inherent viscosity 0.67 dL/g, Lactide/Glycolide 65/35",+
same,Phase Separation,"[3]; drug 15% w/w, polymer inherent viscosity 0.69 dL/g, Lactide/Glycolide 50/50 (first of two such lines, r12)",−
same,Phase Separation,"[3]; drug 15% w/w, polymer inherent viscosity 0.69 dL/g, Lactide/Glycolide 50/50 (second of two such lines, r13)",+
same,Phase Separation,"[3]; drug 15% w/w, polymer inherent viscosity 0.76-0.94 dL/g, Lactide/Glycolide 50/50",+
same,Phase Separation,"[3]; drug 15% w/w, polymer inherent viscosity 0.87 dL/g, Lactide/Glycolide 50/50",+
same,Phase Separation,"[3]; drug 15% w/w, polymer inherent viscosity 0.95-1.20 dL/g, Lactide/Glycolide 50/50",−
same,Phase Separation,"[3]; drug 15% w/w, polymer inherent viscosity 1.15 dL/g, Lactide/Glycolide 50/50",+
same,Phase Separation,"[3]; drug 15% w/w, polymer inherent viscosity 1.24 dL/g, Lactide/Glycolide 50/50",+
same,Phase Separation,"[3]; drug 20% w/w, polymer inherent viscosity 0.16 dL/g, Lactide/Glycolide 50/50",−
same,Phase Separation,"[3]; drug 20% w/w, polymer inherent viscosity 0.18 dL/g, Lactide/Glycolide 75/25",+
same,Phase Separation,"[3]; drug 20% w/w, polymer inherent viscosity 0.26-0.54 dL/g, Lactide/Glycolide 50/50, Ester Terminated",+
same,Phase Separation,"[3]; drug 20% w/w, polymer inherent viscosity 0.39 dL/g, Lactide/Glycolide 50/50",−
same,Phase Separation,"[3]; drug 20% w/w, polymer inherent viscosity 0.55-0.75 dL/g, Lactide/Glycolide 50/50, Carbohydrate end Group",+
same,Phase Separation,"[3]; drug 20% w/w, polymer inherent viscosity 0.63 dL/g, Lactide/Glycolide 85/15",+
same,Phase Separation,"[3]; drug 20% w/w, polymer inherent viscosity 0.64 dL/g, Lactide/Glycolide 65/35",+
same,Phase Separation,"[3]; drug 20% w/w, polymer inherent viscosity 0.64 dL/g, Lactide/Glycolide 75/25",+
same,Phase Separation,"[3]; drug 20% w/w, polymer inherent viscosity 0.67 dL/g, Lactide/Glycolide 65/35",+
same,Phase Separation,"[3]; drug 20% w/w, polymer inherent viscosity 0.69 dL/g, Lactide/Glycolide 50/50 (first of two such lines, r12)",+
same,Phase Separation,"[3]; drug 20% w/w, polymer inherent viscosity 0.69 dL/g, Lactide/Glycolide 50/50 (second of two such lines, r13)",+
same,Phase Separation,"[3]; drug 20% w/w, polymer inherent viscosity 0.76-0.94 dL/g, Lactide/Glycolide 50/50",+
same,Phase Separation,"[3]; drug 20% w/w, polymer inherent viscosity 0.87 dL/g, Lactide/Glycolide 50/50",+
same,Phase Separation,"[3]; drug 20% w/w, polymer inherent viscosity 0.95-1.20 dL/g, Lactide/Glycolide 50/50",+
same,Phase Separation,"[3]; drug 20% w/w, polymer inherent viscosity 1.15 dL/g, Lactide/Glycolide 50/50",+
same,Phase Separation,"[3]; drug 20% w/w, polymer inherent viscosity 1.24 dL/g, Lactide/Glycolide 50/50",+
